From ChEMBL document CHEMBL6103580, “Synthesis and biological evaluation of natural cleistanolate, its enantiomer and analogues” (Eur J Med Chem, 2025)
Activity calls are given as the source filed them. The rule behind the calls is not given here.

What was measured:
Candida tropicalis = experiment: Antifungal activity against Candida tropicalis CCY 29-7-62 assessed as reduction in fungal growth incubated for 48 hrs by muller hinton broth microdilution based XTT assay; format: functional
MCF7 = experiment: Antiproliferative activity against human MCF7 cells assessed as inhibition of cell growth incubated for 72 hrs by MTT assay; format: functional, cell-based; conditions: MCF7, 72 h
[1] = Antiproliferative activity against human MRC5 cells assessed as inhibition of cell growth incubated for 72 hrs by MTT assay; format: toxicity, cell-based
Jurkat = experiment: Antiproliferative activity against human Jurkat cells assessed as inhibition of cell growth incubated for 72 hrs by MTT assay; format: functional, cell-based
MDA-MB-231 = experiment: Antiproliferative activity against human MDA-MB-231 cells assessed as inhibition of cell growth incubated for 72 hrs by MTT assay; format: functional, cell-based; conditions: MDA-MB-231, 72 h
Vibrio cholerae = experiment: Antibacterial activity against Vibrio cholerae O139 CIRS 245 assessed as reduction in cell viability incubated for 24 hrs by muller hinton broth microdilution based XTT assay; format: functional
Escherichia coli [2] = experiment: Antibacterial activity against Escherichia coli ZPM 132 assessed as reduction in cell viability incubated for 24 hrs by muller hinton broth microdilution based XTT assay; format: functional
Raji [3] = experiment: Antiproliferative activity against human Raji cells assessed as inhibition of cell growth incubated for 72 hrs by MTT assay; format: functional, cell-based
K562 = experiment: Antiproliferative activity against human K562 cells assessed as inhibition of cell growth incubated for 72 hrs by MTT assay; format: functional, cell-based; conditions: K562, 72 h
Streptococcus pneumoniae = experiment: Antibacterial activity against Streptococcus pneumoniae ZPM 187 assessed as reduction in cell viability incubated for 24 hrs by muller hinton broth microdilution based XTT assay; format: functional
[4] = molecular target: Cholinesterase (Homo sapiens) (UniProt P06276); experiment: Inhibition of human BChE at 100 uM using acetylthiocholine iodide as substrate by DTNB reagent based Ellman spectrophotometric analysis relative to control
Sequence of Cholinesterase (Homo sapiens) (P06276 whole entry): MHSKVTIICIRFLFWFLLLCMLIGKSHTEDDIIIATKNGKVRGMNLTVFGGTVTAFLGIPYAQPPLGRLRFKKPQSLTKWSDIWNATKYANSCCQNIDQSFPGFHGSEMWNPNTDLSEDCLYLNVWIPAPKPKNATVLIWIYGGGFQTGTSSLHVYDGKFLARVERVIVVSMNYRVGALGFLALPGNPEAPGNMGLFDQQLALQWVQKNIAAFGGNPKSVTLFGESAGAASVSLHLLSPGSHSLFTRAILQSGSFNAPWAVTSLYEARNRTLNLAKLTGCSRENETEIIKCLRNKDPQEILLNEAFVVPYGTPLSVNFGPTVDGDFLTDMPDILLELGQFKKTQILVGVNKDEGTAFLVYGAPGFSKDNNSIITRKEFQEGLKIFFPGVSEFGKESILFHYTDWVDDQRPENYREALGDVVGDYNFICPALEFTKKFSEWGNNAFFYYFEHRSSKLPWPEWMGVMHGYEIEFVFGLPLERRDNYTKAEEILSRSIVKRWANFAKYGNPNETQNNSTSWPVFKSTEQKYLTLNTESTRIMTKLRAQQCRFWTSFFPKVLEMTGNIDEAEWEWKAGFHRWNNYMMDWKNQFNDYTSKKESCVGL

Escherichia coli [5] = experiment: Antimicrobial activity against Escherichia coli ZPM 132 assessed as reduction in cell viability incubated for 24 hrs by muller hinton broth microdilution based XTT assay; format: functional
A549 = experiment: Antiproliferative activity against human A549 cells assessed as inhibition of cell growth incubated for 72 hrs by MTT assay; format: functional, cell-based; conditions: A549, 72 h
HL-60 = experiment: Antiproliferative activity against human HL-60 cells assessed as inhibition of cell growth incubated for 72 hrs by MTT assay; format: functional, cell-based; conditions: HL-60, 72 h
HeLa = experiment: Antiproliferative activity against human HeLa cells assessed as inhibition of cell growth incubated for 72 hrs by MTT assay; format: functional, cell-based
Raji [6] = experiment: Potency index, ratio of cleistanolate IC50 to test compound IC50 for antiproliferative activity against human Raji cells assessed as inhibition of cell growth incubated for 72 hrs by MTT assay; format: functional
[7] = Potency index, ratio of doxorubicin IC50 to test compound IC50 for antiproliferative activity against human HL-60 cells assessed as inhibition of cell growth incubated for 72 hrs by MTT assay; format: functional
[8] = Potency index, ratio of cleistanolate IC50 to test compound IC50 for antiproliferative activity against human HeLa cells assessed as inhibition of cell growth incubated for 72 hrs by MTT assay; format: functional
Raji [9] = experiment: Potency index, ratio of doxorubicin IC50 to test compound IC50 for antiproliferative activity against human Raji cells assessed as inhibition of cell growth incubated for 72 hrs by MTT assay; format: functional

CO[C@@H]1CC(=O)O[C@@H]1[C@@H](OC(=O)c1ccccc1)[C@H](COC(=O)c1ccccc1)OC(=O)c1ccccc1
MFC (Candida tropicalis): > 100 µg/mL
IC50 (MCF7): 13.2 µM
IC50 at 72 h [1]: > 100 µM
IC50 (Jurkat): 15.9 µM
IC50 (MDA-MB-231): 13.5 µM
MBC (Vibrio cholerae): > 100 µg/mL
MBC (Escherichia coli [2]): > 1000 µg/mL
IC50 (Raji [3]): 14.1 µM
IC50 (K562): 3.36 µM
MBC (Streptococcus pneumoniae): > 100 µg/mL
inhibition [4]: 40%
MIC (Escherichia coli [5]): > 1000 µg/mL
IC50 (A549): 14.1 µM
IC50 (HL-60): 8.58 µM
IC50 (HeLa): 15.3 µM

CO[C@H]1CC(=O)O[C@H]1[C@H](OC(C)=O)[C@H](COC(=O)c1ccccc1)OC(C)=O
IC50 (MCF7): 5.21 µM
IC50 at 72 h [1]: > 100 µM
IC50 (Jurkat): 14 µM
IC50 (MDA-MB-231): 16.1 µM
IC50 (Raji [3]): 11.2 µM
IC50 (K562): 8.23 µM
IC50 (A549): 8.32 µM
IC50 (HL-60): 21 µM
IC50 (HeLa): 7.02 µM

C=C[C@@H](O)[C@@H]1OC(=O)C[C@@H]1OC
IC50 (MCF7): 9.2 µM
IC50 at 72 h [1]: > 100 µM
IC50 (Jurkat): 5.36 µM
IC50 (MDA-MB-231): 11.9 µM
IC50 (Raji [3]): 18.6 µM
IC50 (K562): 2.74 µM
IC50 (A549): 19.6 µM
IC50 (HL-60): 7.17 µM
IC50 (HeLa): 4.52 µM

CO[C@@H]1CC(=O)O[C@@H]1[C@@H](OC(C)=O)[C@H](COC(=O)c1ccccc1)OC(C)=O
MFC (Candida tropicalis): > 100 µg/mL
IC50 (MCF7): 5.4 µM
IC50 at 72 h [1]: 94.8 µM
IC50 (Jurkat): 26.3 µM
IC50 (MDA-MB-231): 21.7 µM
MBC (Vibrio cholerae): > 100 µg/mL
MBC (Escherichia coli [2]): > 1000 µg/mL
IC50 (Raji [3]): 22.3 µM
IC50 (K562): 12 µM
MBC (Streptococcus pneumoniae): > 100 µg/mL
inhibition [4]: 35%
MIC (Escherichia coli [5]): > 1000 µg/mL
IC50 (A549): 25.4 µM
IC50 (HL-60): 11 µM
IC50 (HeLa): 2.45 µM

CO[C@@H]1CC(=O)O[C@@H]1[C@@H](OC(C)=O)[C@@H](COC(=O)c1ccccc1)OC(C)=O
IC50 (MCF7): 13.5 µM
IC50 at 72 h [1]: > 100 µM
IC50 (Jurkat): 22.1 µM
IC50 (MDA-MB-231): 28.4 µM
Ratio IC50 (Raji [6]): 2.1
IC50 (Raji [3]): 31.4 µM
IC50 (K562): 7.23 µM
IC50 (A549): 9.78 µM
IC50 (HL-60): 16.5 µM
IC50 (HeLa): 6.31 µM

O=C1C[C@@H](O)[C@@H]([C@@H](O)[C@H](O)CO)O1
IC50 (MCF7): 0.63 µM
IC50 at 72 h [1]: > 100 µM
Ratio IC50 [7]: 1.3
IC50 (Jurkat): 3.25 µM
Ratio IC50 [8]: 2
IC50 (MDA-MB-231): 5.32 µM
IC50 (Raji [3]): 2.64 µM
Ratio IC50 (Raji [9]): 1.1
IC50 (K562): 2.36 µM
IC50 (A549): 8.64 µM
IC50 (HL-60): 0.74 µM
IC50 (HeLa): 0.89 µM

C=C[C@@H](OCc1ccccc1)[C@@H]1OC(=O)C[C@@H]1O
MFC (Candida tropicalis): > 100 µg/mL
IC50 (MCF7): 9.44 µM
IC50 at 72 h [1]: > 100 µM
IC50 (Jurkat): 11.3 µM
IC50 (MDA-MB-231): 21.3 µM
MBC (Vibrio cholerae): > 100 µg/mL
MBC (Escherichia coli [2]): > 1000 µg/mL
IC50 (Raji [3]): 22.2 µM
IC50 (K562): 3.95 µM
MBC (Streptococcus pneumoniae): > 100 µg/mL
inhibition [4]: 13%
MIC (Escherichia coli [5]): > 1000 µg/mL
IC50 (A549): 22.6 µM
IC50 (HL-60): 11.2 µM
IC50 (HeLa): 54.1 µM

C=C[C@H](OCc1ccccc1)[C@H]1OC(=O)C[C@H]1O
IC50 (MCF7): 19.2 µM
IC50 at 72 h [1]: > 100 µM
IC50 (Jurkat): 29.1 µM
IC50 (MDA-MB-231): 12.9 µM
IC50 (Raji [3]): 34.8 µM
IC50 (K562): 25.1 µM
IC50 (A549): 17.2 µM
IC50 (HL-60): 23.4 µM
IC50 (HeLa): 17 µM

CO[C@H]1CC(=O)O[C@H]1[C@H](OC(=O)c1ccccc1)[C@@H](COC(=O)c1ccccc1)OC(=O)c1ccccc1
IC50 (MCF7): 1.31 µM
IC50 at 72 h [1]: > 100 µM
IC50 (Jurkat): 23.4 µM
IC50 (MDA-MB-231): 23.7 µM
IC50 (Raji [3]): 17 µM
IC50 (K562): 17.9 µM
IC50 (A549): 24.1 µM
IC50 (HL-60): 6.38 µM
IC50 (HeLa): 5.58 µM

C=C[C@H](O)[C@H]1OC(=O)C[C@H]1OC
MFC (Candida tropicalis): > 100 µg/mL
IC50 (MCF7): 4.23 µM
IC50 at 72 h [1]: > 100 µM
IC50 (Jurkat): 12.8 µM
IC50 (MDA-MB-231): 11.8 µM
MBC (Vibrio cholerae): > 100 µg/mL
MBC (Escherichia coli [2]): > 1000 µg/mL
IC50 (Raji [3]): 32.9 µM
IC50 (K562): 8.05 µM
MBC (Streptococcus pneumoniae): > 100 µg/mL
inhibition [4]: inactive
MIC (Escherichia coli [5]): > 1000 µg/mL
IC50 (A549): 28.3 µM
IC50 (HL-60): 11.7 µM
IC50 (HeLa): 10.9 µM

Nc1c2c(nc3ccccc13)CCCC2
inhibition [4]: 96%

CO[C@@H]1CC(=O)O[C@@H]1[C@@H](O)[C@H](O)COC(=O)c1ccccc1
IC50 (MCF7): 15.6 µM
IC50 at 72 h [1]: > 100 µM
IC50 (Jurkat): 15.6 µM
IC50 (MDA-MB-231): 31.2 µM
IC50 (Raji [3]): 19.4 µM
IC50 (K562): 10.6 µM
IC50 (A549): 25.6 µM
IC50 (HL-60): 18.9 µM
IC50 (HeLa): 8.61 µM
